Results from US8586747B2, “3,3-dimethyl tetrahydroquinoline derivatives” (Hoffmann-La Roche Inc., priority 2010, dated 2013).

What follows are compounds tested on AMP-activated protein kinase (AMPK) (assay: ADP Quest assay for AMPK activators). Conditions: fold of AMPK activation to phosphorylate SAMS peptide without and with an activator at the concentration of 30 µM.
Type: biochemical
Design: key: fold AMPK activation with vs without activator at 30 µM
Summary of the method: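 AMPK phosphorylation of SAMS peptide with ATP monitored kinetically at room temperature by ADP Quest fluorescence (ex 530/em 590 nm), reaction started with enzyme. Compounds tested […] in 2-fold dilutions, AMP as reference. E30 is fold activation at 30 µM activator versus none.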

| Compound | E30 |
| --- | --- |
| CN1CC(NC(=O)c2cccc(C3Nc4ccc(C(=O)O)cc4CC3(C)C)c2)C1 (stereo not shown) [Example 208, 3,3-Dimethyl-2-(3-(1-methylazetidin-3-ylcarbamoyl)phenyl)-1,2,3,4-tetrahydroquinoline-6-carboxylic acid] | 1.3 |
| CC1(C)Cc2c(ccc(F)c2C(=O)NS(=O)(=O)C2CC2)NC1c1cccc(N2CCOCC2)c1 (stereo not shown) [Example 117, Cyclopropanesulfonic acid [6-fluoro-3,3-dimethyl-2-(3-morpholin-4-yl-phenyl)-1,2,3,4-tetrahydro-quinoline-5-carbonyl]-amide] | 1.7 |
| CC1(C)Cc2cc(C(=O)O)ccc2NC1c1cccc(NC(=O)Nc2cccc(F)c2)c1 (stereo not shown) [Example 13, 2-{3-[3-(3-Fluoro-phenyl)-ureido]-phenyl}-3,3-dimethyl-1,2,3,4-tetrahydro-quinoline-6-carboxylic acid] | 1.21 |
| CC(C)(Nc1cccc(C2Nc3ccc(S(C)(=O)=O)cc3CC2(C)C)c1)C(=O)O (stereo not shown) [Example 48, 2-[3-(6-Methanesulfonyl-3,3-dimethyl-1,2,3,4-tetrahydro-quinolin-2-yl)-phenylamino]-2-methyl-propionic acid] | 2.62 |
| CN1CCN(C(=O)C(C)(C)Nc2cccc(C3Nc4ccc(C(=O)O)cc4CC3(C)C)c2)CC1 (stereo not shown) [Example 42, 2-{3-[1,1-Dimethyl-2-(4-methyl-piperazin-1-yl)-2-oxo-ethylamino]-phenyl}-3,3-dimethyl-1,2,3,4-tetrahydro-quinoline-6-carboxylic acid] | 1.31 |
| CC1(C)Cc2cc(C(=O)NS(C)(=O)=O)ccc2NC1c1cccc(N2CCOCC2)c1 (stereo not shown) [Example 8, N-[3,3-dimethyl-2-(3-morpholin-4-yl-phenyl)-1,2,3,4-tetrahydro-quinoline-6-carbonyl]-methanesulfonamide] | 1.29 |
| CC1(C)Cc2cc(C(=O)NS(=O)(=O)C3CC3)ccc2NC1c1cncc(N2CCOCC2)c1 (stereo not shown) [Example 114, Cyclopropanesulfonic acid [3,3-dimethyl-2-(5-morpholin-4-yl-pyridin-3-yl)-1,2,3,4-tetrahydro-quinoline-6-carbonyl]-amide] | 1.21 |
| CC1(C)Cc2cc(C(=O)O)ccc2NC1c1ccc(F)c(NS(=O)(=O)c2cccc(F)c2)c1 (stereo not shown) [Example 206, 2-(4-Fluoro-3-(3-fluorophenylsulfonamido)phenyl)-3,3-dimethyl-1,2,3,4-tetrahydroquinoline-6-carboxylic acid] | 1.33 |
| CC(C)(CO)Nc1cccc(C2Nc3ccc(C(=O)O)cc3CC2(C)C)c1 (stereo not shown) [Example 29, 2-[3-(2-Hydroxy-1,1-dimethyl-ethylamino)-phenyl]-3,3-dimethyl-1,2,3,4-tetrahydro-quinoline-6-carboxylic acid] | 1.34 |
| CC(C)S(=O)(=O)Nc1cccc(C2Nc3ccc(C(=O)O)cc3CC2(C)C)c1 (stereo not shown) [Example 166, 3,3-Dimethyl-2-(3-(1-methylethylsulfonamido)phenyl)-1,2,3,4-tetrahydroquinoline-6-carboxylic acid] | 1.43 |
| CC1(C)Cc2cc(C(=O)O)ccc2NC1c1cccc(NC(=O)N2CCCC2)c1 (stereo not shown) [Example 35, 3,3-Dimethyl-2-{3-[(pyrrolidine-1-carbonyl)-amino]-phenyl}-1,2,3,4-tetrahydro-quinoline-6-carboxylic acid] | 1.41 |
| CC1(C)Cc2cc(C(=O)NS(=O)(=O)C3CC3)ccc2NC1c1cccc(N2CC(F)C2)c1 (stereo not shown) [Example 153, Cyclopropanesulfonic acid {2-[3-(3-fluoro-azetidin-1-yl)-phenyl]-3,3-dimethyl-1,2,3,4-tetrahydro-quinoline-6-carbonyl}-amide] | 1.27 |
| CC1(C)Cc2cc(C(=O)NS(=O)(=O)C3CC3)ccc2NC1c1cc(F)cc(N2CCCC2)c1 (stereo not shown) [Example 62, Cyclopropanesulfonic acid [2-(3-fluoro-5-pyrrolidin-1-yl-phenyl)-3,3-dimethyl-1,2,3,4-tetrahydro-quinoline-6-carbonyl]-amide] | 1.61 |
| Cc1cc(C2Nc3ccc(C(=O)NS(C)(=O)=O)cc3CC2(C)C)cc(N2CCOCC2)c1 (stereo not shown) [Example 65, N-[3,3-Dimethyl-2-(3-methyl-5-morpholin-4-yl-phenyl)-1,2,3,4-tetrahydro-quinoline-6-carbonyl]-methanesulfonamide] | 1.46 |
| CC1(C)Cc2c(cc(Cl)cc2C(=O)NS(C)(=O)=O)NC1c1cccc(N2CCOCC2)c1 (stereo not shown) [Example 149, N-[7-Chloro-3,3-dimethyl-2-(3-morpholin-4-yl-phenyl)-1,2,3,4-tetrahydro-quinoline-5-carbonyl]-methanesulfonamide] | 1.26 |
| Cc1ccccc1N1CCN(c2cccc(C3Nc4c(cc(Cl)cc4C(=O)O)CC3(C)C)c2)CC1 (stereo not shown) [Example 82, 6-Chloro-3,3-dimethyl-2-[3-(4-o-tolyl-piperazin-1-yl)-phenyl]-1,2,3,4-tetrahydro-quinoline-8-carboxylic acid] | 1.5 |
| CC1(C)Cc2cc(C(=O)O)ccc2NC1c1ccc(NC(=O)c2ccccn2)cc1 (stereo not shown) [Example 186, 3,3-Dimethyl-2-(4-(picolinamido)phenyl)-1,2,3,4-tetrahydroquinoline-6-carboxylic acid] | 1.21 |

| Compound | E30 |
| --- | --- |
| CC1(C)Cc2cc(C(=O)O)ccc2NC1c1ccc(NC(=O)Cc2ccccc2)cc1 (stereo not shown) [Example 193, 3,3-Dimethyl-2-(4-(2-phenylacetamido)phenyl)-1,2,3,4-tetrahydroquinoline-6-carboxylic acid] | 1.26 |
| CC1(C)Cc2c(ccc(F)c2C(=O)NS(C)(=O)=O)NC1c1cccc(N2CCOCC2)c1 (stereo not shown) [Example 118, N-[6-Fluoro-3,3-dimethyl-2-(3-morpholin-4-yl-phenyl)-1,2,3,4-tetrahydro-quinoline-5-carbonyl]-methanesulfonamide] | 1.64 |
| CN(C)c1ccc(-c2cccc(C3Nc4c(cc(Cl)cc4C(=O)NS(=O)(=O)C4CC4)CC3(C)C)c2)cc1 (stereo not shown) [Example 141, Cyclopropanesulfonic acid [6-chloro-2-(4′-dimethylamino-biphenyl-3-yl)-3,3-dimethyl-1,2,3,4-tetrahydro-quinoline-8-carbonyl]-amide] | 1.3 |
| CC1(C)Cc2cc(C(=O)NS(C)(=O)=O)ccc2NC1c1cc(F)cc(N2CCCC2=O)c1 (stereo not shown) [Example 77, N-{2-[3-fluoro-5-(2-oxo-pyrrolidin-1-yl)-phenyl]-3,3-dimethyl-1,2,3,4-tetrahydro-quinoline-6-carbonyl}-methanesulfonamide] | 1.42 |
| CC1(C)Cc2cc(C(=O)NS(=O)(=O)C3CC3)ccc2NC1c1cccc(N2CCOC2=O)c1 (stereo not shown) [Example 116, Cyclopropanesulfonic acid {3,3-dimethyl-2-[3-(2-oxo-oxazolidin-3-yl)-phenyl]-1,2,3,4-tetrahydro-quinoline-6-carbonyl}-amide] | 1.2 |
| CC(C)(Nc1cccc(C2Nc3ccc(Cl)cc3CC2(C)C)c1)C(=O)O (stereo not shown) [Example 37, 2-[3-(6-Chloro-3,3-dimethyl-1,2,3,4-tetrahydro-quinolin-2-yl)-phenylamino]-2-methyl-propionic acid] | 2.19 |
| CC1(C)Cc2cc(C(=O)O)ccc2NC1c1cccc(NC2(C(=O)O)CC2)c1 (stereo not shown) [Example 44, 2-[3-(1-Carboxy-cyclopropylamino)-phenyl]-3,3-dimethyl-1,2,3,4-tetrahydro-quinoline-6-carboxylic acid] | 2.67 |
| COc1cc(C2Nc3ccc(C(=O)NS(C)(=O)=O)cc3CC2(C)C)cc(N2CCOCC2)c1 (stereo not shown) [Example 68, N-[2-(3-Methoxy-5-morpholin-4-yl-phenyl)-3,3-dimethyl-1,2,3,4-tetrahydro-quinoline-6-carbonyl]-methanesulfonamide] | 1.33 |
| CC1(C)Cc2cc(C(=O)O)ccc2NC1c1cccc(N2CC(=O)NC2=O)c1 (stereo not shown) [Example 19, 2-[3-(2,4-Dioxo-imidazolidine-1-yl)-phenyl]-3,3-dimethyl-1,2,3,4-tetrahydro-quinoline-6-carboxylic acid] | 1.38 |
| CC1(C)Cc2cc(C(=O)NS(=O)(=O)C3CC3)ccc2NC1c1cccc(-c2ccc(S(C)(=O)=O)cc2)c1 (stereo not shown) [Example 161, Cyclopropanesulfonic acid [2-(4′-methanesulfonyl-biphenyl-3-yl)-3,3-dimethyl-1,2,3,4-tetrahydro-quinoline-6-carbonyl]-amide] | 1.21 |
| CC1(C)Cc2c(cc(F)cc2C(=O)O)NC1c1cccc(N2CCOCC2)c1 (stereo not shown) [Example 134, 7-Fluoro-3,3-dimethyl-2-(3-morpholin-4-yl-phenyl)-1,2,3,4-tetrahydro-quinoline-5-carboxylic acid] | 1.32 |
| CC1(C)Cc2cc(C(=O)O)ccc2NC1c1ccc(NC(=O)C2CCC2)cc1 (stereo not shown) [Example 215, 2-(4-(Cyclobutanecarboxamido)phenyl)-3,3-dimethyl-1,2,3,4-tetrahydroquinoline-6-carboxylic acid] | 1.38 |
| COC(=O)c1ccc2c(c1)CC(C)(C)C(c1cccc(C(=O)Nc3cnccn3)c1)N2 (stereo not shown) [Example 197, Methyl 3,3-dimethyl-2-(3-(pyrazin-2-ylcarbamoyl)-phenyl)-1,2,3,4-tetrahydroquinoline-6-carboxylate] | 1.22 |
| CC1(C)Cc2cc(C(=O)O)ccc2NC1c1ccccc1 (stereo not shown) [Example 158, 3,3-Dimethyl-2-phenyl-1,2,3,4-tetrahydro-quinoline-6-carboxylic acid] | 1.34 |
| CC1(C)Cc2cc(C(=O)NS(C)(=O)=O)ccc2NC1c1cc(C#N)cc(N2CCOCC2)c1 (stereo not shown) [Example 69, N-[2-(3-Cyano-5-morpholin-4-yl-phenyl)-3,3-dimethyl-1,2,3,4-tetrahydro-quinoline-6-carbonyl]-methanesulfonamide] | 1.28 |
| CC1(C)Cc2cc(C(=O)O)ccc2NC1c1cccc(C(=O)NC2CC2)c1 (stereo not shown) [Example 170, 2-(3-(Cyclopropylcarbamoyl)phenyl)-3,3-dimethyl-1,2,3,4-tetrahydroquinoline-6-carboxylic acid] | 1.36 |
| Cc1ccccc1N1CCN(c2cccc(C3Nc4c(cc(F)cc4C(=O)O)CC3(C)C)c2)CC1 (stereo not shown) [Example 92, 6-Fluoro-3,3-dimethyl-2-[3-(4-o-tolyl-piperazin-1-yl)-phenyl]-1,2,3,4-tetrahydro-quinoline-8-carboxylic acid] | 1.23 |
